Test results from patent US20090022757A1, “Method for treating photoreceptor cell degeneration” (priority 2007, published 2009).

Key:
[1] = test system: MNU-induced retinal photoreceptor cell degeneration; experiment: Electroretinogram of rats with MNU-induced retinal photoreceptor cell degeneration treated with GLS oil and/or DHA; assay type: in vivo, Sprague Dawley rats; parameters: a-Wave Amplitude / b-Wave Amplitude: unit not given here; settings: MNU 40 mg/kg i.p.
Experimental: Animals and grouping: One hundred and five 50-day-old Sprague Dawley rats were used in the experiment. Twenty-five rats were selected randomly as the normal control (receiving an excipient via gastric gavage). Eighty rats were used for establishing the photoreceptor cell degeneration model and were treated by intraperitoneal injection with a single dose of MNU at 40 mg/kg. The MNU-injected rats were randomly divided into four experimental groups:
(1) GLS oil treatment group (receiving GSL oil and an excipient via gastric gavage);
(2) GLS oil+DHA treatment group (receiving GSL oil, DHA, and an excipient via gastric gavage);
(3) DHA control group (receiving DHA and an excipient via gastric gavage;
(4) Model control group (receiving an excipient via gastric gavage).
The excipient used in this experiment is hydroxypropyl methyl cellulose. The treatment started three days before the administration of MNU (day-3). Each animal in Groups 1-3 received a daily gastric feeding of GSL oil only, GSL oil and DHA (2 mg/kg), or DHA (2 mg/kg) only, in 1 ml 0.5% hydroxypropyl methyl cellulose. Animals in Group 4 received 1 ml 0.5% hydroxypropyl methyl cellulose.
Electroretinogram examination: The pupils of rats were dilated as described in Example 1. The electroretinogram examinations were conducted under the following conditions:
A Neuropack II electrophysiological analyzer was employed to measure the visual electrophysiology.

[2] = test system: MNU-induced retinal photoreceptor cell degeneration; experiment: Pathological examination of MNU-induced retinal photoreceptor cell damage in rats treated with GLS oil and/or DHA; settings: MNU 40 mg/kg i.p., damage score
[3] = daily gastric gavage from day -3, day 1
[4] = daily gastric gavage from day -3, day 3
[5] = daily gastric gavage from day -3, day 5
[6] = daily gastric gavage from day -3, day 7
[7] = daily gastric gavage from day -3, day 10

CC/C=C\C/C=C\C/C=C\C/C=C\C/C=C\C/C=C\CCC(=O)O [DHA, Docosahexaenoic acid]
a-Wave Amplitude [1, 3]: 18.43 ± 17.94 | a-Wave Latent Period [1, 3]: 10.35 ± 9.02 | b-Wave Amplitude [1, 3]: 56.90 ± 61.16 | b-Wave Latent Period [1, 3]: 43.92 ± 38.08 | a-Wave Amplitude [1, 4]: 14.13 ± 15.71 | a-Wave Latent Period [1, 4]: 8.64 ± 9.91 | b-Wave Amplitude [1, 4]: 59.43 ± 65.22 | b-Wave Latent Period [1, 4]: 35.10 ± 37.34 | a-Wave Amplitude [1, 5]: 10.27 ± 11.15 | a-Wave Latent Period [1, 5]: 8.30 ± 8.81 | b-Wave Amplitude [1, 5]: 47.85 ± 52.05 | b-Wave Latent Period [1, 5]: 34.92 ± 36.97 | a-Wave Amplitude [1, 6]: 16.61 ± 18.95 | a-Wave Latent Period [1, 6]: 9.01 ± 9.56 | b-Wave Amplitude [1, 6]: 53.93 ± 58.06 | b-Wave Latent Period [1, 6]: 36.24 ± 38.45 | a-Wave Amplitude [1, 7]: 19.70 ± 17.97 | a-Wave Latent Period [1, 7]: 10.42 ± 9.10 | b-Wave Amplitude [1, 7]: 64.71 ± 57.60 | b-Wave Latent Period [1, 7]: 43.23 ± 37.88 | Number of Eyes with extinguished electroretinogram ([1]; n = 10, day 3): 5 | Number of Eyes with extinguished electroretinogram ([1]; n = 10, day 5): 5 | Number of Eyes with extinguished electroretinogram ([1]; n = 10, day 7): 5 | Number of Eyes with extinguished electroretinogram ([1]; n = 10, day 10): 4 | Number of Eyes with extinguished electroretinogram ([1]; n = 10, day 11): 4 | The Damage Degree of the Retinal Photoreceptor Cell Pathology ([2]; day 1): 1.40 ± 0.52 | The Damage Degree of the Retinal Photoreceptor Cell Pathology ([2]; day 3): 2.2 ± 1.32 | The Damage Degree of the Retinal Photoreceptor Cell Pathology ([2]; day 5): 2.9 ± 2.85 | The Damage Degree of the Retinal Photoreceptor Cell Pathology ([2]; day 7): 2.80 ± 2.97 | The Damage Degree of the Retinal Photoreceptor Cell Pathology ([2]; day 10): 2.60 ± 2.95
